Assay results published in publication PMC5365648, “Pharmacokinetics of the Novel Echinocandin CD101 in Multiple Animal Species” (Antimicrobial Agents and Chemotherapy, 2017).
Starred links: 1 amine or outer side, 2 acyl side, 3 side chain; linkers in the order of their positions; H or OH if unused. Positions of bridges follow the written chain, without caps; N, C: chain ends. Non-standard residues stand in square brackets, D forms with d. Residues, ends and D or L forms follow the SMILES beside them. *: point of attachment. pTerphenylCO(4''-OnC5H11) = CCCCCOc1ccc(-c2ccc(-c3ccc(C(=O)*)cc3)cc2)cc1; Orn(4R-OH,5R-OH) = O=C([C@H](C[C@@H](O)[C@@H](O)N[*:3])N[*:1])[*:2]; hTyr(3S-OH,4S-OH) = N[C@H](C(=O)O)[C@H](O)[C@@H](O)c1ccc(O)cc1; Pro(3S-OH,4S-Me) = C[C@H]1CN[C@H](C(=O)O)[C@H]1O; Hyp = O=C(O)[C@@H]1C[C@@H](O)CN1

Columns and labels:
[1] = radiolabeled drug, bile duct-cannulated rats, ref [14], cited from earlier work
Method: In that study, which utilized radiolabeled anidulafungin in bile duct-cannulated rats, 94.8% of the radioactive dose was accounted for through 168 h (or 7 days). […] In a similar study of CD101 conducted with nonradiolabeled material, no biotransformati ...

[2] = for CD101 the effective half-life (covers the majority of the AUC), ref [10]; cited from earlier work
Method: The half-life of CD101 in human is about 3-fold longer (about 90 h) than that of anidulafungin (about 30 h) ([10]). It should be noted that 90 h is the effective half-life of CD101 (i.e., the half-life that covers the majority of the AUC), with a longer, later-phase half-life evident at lower concentration ...

[3] = ref [13]; cited from earlier work
From the text: In the case of brain concentrations, there was little difference across all the collection intervals. Given the relatively low concentrations and small differences across times, measured concentrations may reflect contamination from residual whole blood during the collec ...

[4] = Cynomolgus monkey pharmacokinetics, i.v. bolus; parameters: species or system cynomolgus monkeys; details: in vivo, iv, cynomolgus monkeys, single 2.8 mg/kg slow i.v. bolus, plasma, LC-MS/MS, n = 3
Method: A single dose of 2.13 mg/kg CD101 or 2.8 mg/kg anidulafungin was administered by slow i.v. bolus (∼10 min) to cynomolgus monkeys (n = 3/group), and blood samples (via peripheral vein) were drawn for plasma processing at 0.167, 0.5, 1, 3, 8, 12, 24, 48, and 72 h postdose.
(§1) For each of the pharmacokinetic studies, whole-blood samples (K3EDTA as anticoagulant) were collected and centrifuged within 30 min of collection. The resulting plasma was harvested and stored at −20°C until analysis. Tissue samples were homogenized by a bead-based homogenizer following the addition of deionized water to excised tissue in a 2:1 (vol/wt) ratio and stored at −20°C until analysis. Prior to analysis, plasma or homogenized tissue samples were quenched with acetonitrile (3:1, acetonitrile-plasma or tissue ratio) containing an appropriate internal standard (isotopically labeled d9-CD101 [mouse and rat] or a structural analog [dog, monkey, and chimpanzee]). Plasma and tissue homogenate concentrations (quantified against calibration standards processed the same way) were determined by reverse-phase, gradient liquid chromatography with tandem mass spectrometric detection (LC-MS/MS) using an AB-SCIEX API 3200Q/4000 mass spectrometry system. Calibration standard ranges were the following: 0.400 (lower limit of quantitation, [LLOQ]) to 200 μg/ml (CD101, mouse), 0.040 (LLOQ) to 10 μg/ml (anidulafungin, mouse), 0.002 (LLOQ) to 10 μg/ml (CD101, rat), 0.005 (LLOQ) to 10 μg/ml (anidulafungin, rat), 0.050 (LLOQ) to 10 μg/ml (CD101, dog), 0.020 (LLOQ) to 10 μg/ml (anidulafungin, dog), 0.010 (LLOQ) to 10 μg/ml (CD101, monkey), 0.001 (LLOQ) to 10 μg/ml (anidulafungin, monkey), 0.015 (LLOQ) to 10 μg/ml (CD101, chimpanzee), and 0.015 (LLOQ) to 10 μg/ml (anidulafungin, chimpanzee). When necessary, dilutions with blank matrix were made for samples that quantified above the upper limit of quantitation. The methods used in the analysis were qualified as fit for purpose: calibration standards were matrix matched with the exception that human plasma calibration standards were used to analyze chimpanzee plasma samples due to the rarity of blank chimpanzee plasma, and, for each analytical batch, triplicate calibration standards were included at the beginning, approximately in the middle, and at the end of the batch. Following analysis, quantitation was carried out by a calibration curve comprising the analyte/internal standard area ratio versus concentration. Analytical batch acceptance followed the general guidance that triplicate standards/quality controls be within ±20% for accuracy (percentage of nominal concentration) and ≤20% for precision (percent coefficient of variation).
(§2) Pharmacokinetic parameters were calculated by noncompartmental analysis using Phoenix WinNonlin (version 6.3; Pharsight, Mountain View, CA) from either individual or mean (mouse) concentration-time profiles. An unpaired t test was used to compare mean exposures from male and female rats.

[5] = Chimpanzee pharmacokinetics, i.v. infusion; assay type: in vivo, chimpanzees; details: in vivo, iv, female chimpanzees, single 1 mg/kg i.v. infusion (1 h), plasma, LC-MS/MS, noncompartmental, n = 2
Method: A single 1-mg/kg dose of CD101 or anidulafungin was administered by i.v. infusion (1 h) to female chimpanzees (n = 2/group), and blood samples (via peripheral vein) were drawn for plasma processing at the midpoint of infusion, at the end of infusion, at 2, 4, 8, 12, 24, 48, and 72 h postdose, and on days 5, 7, and 10 postdose.
as §1, §2

[6] = Mouse pharmacokinetics, i.v. bolus; details: in vivo, iv, male ICR (CD-1) mice, single 1 mg/kg slow i.v. bolus, plasma, LC-MS/MS, noncompartmental from mean profile, n = 3/time point
Method: A single 1-mg/kg dose of CD101 or anidulafungin was administered by slow i.v. bolus (∼2 min) to male ICR (CD-1) mice (n = 3/group/time point). Blood samples (via cardiac puncture) were collected for plasma processing predose and at 0.083 (5 min), 0.5, 1, 4, 8, 24, 48, and 72 h postdose. PK profiles were generated based on mean results from the three animals sampled at each time point. In another study, a single 1-, 4-, or 16-mg/kg dose of CD101 was administered by i.p. injection to female ICR (CD-1) mice (n = 3/time point/dose), and blood samples (via cardiac puncture) were drawn for plasma processing at 1, 3, 6, 12, 24, 48, 72, and 96 h postdose.
as §1, §2

| Molecule | radioactive dose accounted for ([1]; through 168 h (7 days)) | drug-derived radioactivity recovered in bile, % of dose ([1]; through 168 h) | drug-derived radioactivity recovered in carcass, % of dose ([1]; through 168 h) | drug-derived radioactivity recovered in feces, % of dose ([1]; through 168 h) | radioactivity recovered in urine ([1]; through 168 h) | half-life in human [2] | Tissue/plasma AUC ratio, kidney [3] | Tissue/plasma AUC ratio, liver [3] | Tissue/plasma AUC ratio, lung [3] | half-life [4] | half-life [5] | clearance ([5]; read-out: CL (clearance)) | half-life [6] | clearance ([6]; read-out: CL (clearance)) |
| --- | --- | --- | --- | --- | --- | --- | --- | --- | --- | --- | --- | --- | --- | --- |
| CCCCCOc1ccc(-c2ccc(-c3ccc(C(=O)N[C@H]4C[C@@H](O)[C@@H](O)NC(=O)[C@@H]5[C@@H](O)[C@@H](C)CN5C(=O)[C@H]([C@@H](C)O)NC(=O)[C@H]([C@H](O)[C@@H](O)c5ccc(O)cc5)NC(=O)[C@@H]5C[C@@H](O)CN5C(=O)[C@H]([C@@H](C)O)NC4=O)cc3)cc2)cc1 [anidulafungin] ({pTerphenylCO(4''-OnC5H11)}-[Orn(4R-OH,5R-OH)]T[Hyp][hTyr(3S-OH,4S-OH)]T[Pro(3S-OH,4S-Me)]; lactam 1-C) | 94.8% | 33.9% | 40.4% | 17.1% | 2.94% | about 30 h | 10.7 | 12.4 | 10.4 | 8 h | 30 h | 0.42 mL/min/kg | 19 h | 0.21 mL/min/kg |
| caspofungin |  |  |  |  |  |  | 5.5 | 10.2 | 1.2 |  |  |  |  |  |
| micafungin |  |  |  |  |  |  | 3.2 | 7.8 | 3.6 |  |  |  |  |  |
